Test results: US10730883B2 (AbbVie Inc., priority 2015, dated 2020)
Values after ≈ are worked out from the molar mass of the structure shown. Where two headings read alike, the source gives them in different places.

Experiments:
[1] = system: healthy subjects; assay: Study 2-Part 1: safety and tolerability, multiple doses, healthy subjects; format: in vivo, human
Protocol: (§3) Study drug was administered approximately 30 minutes after a standard breakfast (in the morning) or a snack (in the evening). […] Subjects were confined to the study site and supervised for approximately 18 days.
Safety was evaluated based on assessments of adverse events, vital signs, physical examination, laboratory metrics, and 12-lead electrocardiogram (ECG). All subjects who received at least one dose of study drug were included in the safety analyses. Subjects who were administered placebo were pooled into a single group within each study or study part. Laboratory test values and vital signs measurements that were above or below the reference range were identified. […] In subjects with RA, the severity of adverse events were rated by the investigator as mild (transient and easily tolerated by the subject), moderate (causes subject discomfort and interrupts the subject's usual activities), or severe (causes considerable interference with the subject's usual activities and may be incapacitating or life-threatening).

[2] = system: subjects with mild to moderate RA; assay: Study 2-Part 2: safety and tolerability, subjects with RA; format: in vivo, human
Protocol: (§4) Subjects received study drug for 26 consecutive days (Study Days 3 through 28) and a single morning dose of study drug on Study Day 29. […] Subjects were confined to the study site for a total of 10 days—from Day 1 to Day 4 and from Day 27 to Day 31.
Safety was evaluated based on assessments of adverse events, vital signs, physical examination, laboratory metrics, and 12-lead electrocardiogram (ECG). All subjects who received at least one dose of study drug were included in the safety analyses. Subjects who were administered placebo were pooled into a single group within each study or study part. Laboratory test values and vital signs measurements that were above or below the reference range were identified. Subjects were followed-up for a total of 7 days in Study 1, 35 days in Study 2-Part 1, and 57 days in Study 2-Part 2. […] In subjects with RA, the severity of adverse events were rated by the investigator as mild (transient and easily tolerated by the subject), moderate (causes subject discomfort and interrupts the subject's usual activities), or severe (causes considerable interference with the subject's usual activities and may be incapacitating or life-threatening).

[3] = Study 1: single-dose escalation PK in healthy subjects
Protocol: (§5) Study 1 was designed as a single-site, randomized, double-blind, placebo-controlled study. […] Study drug was administered following at least 10 hours of fasting. […] Subjects were confined to the study site and supervised for approximately 8 consecutive days.
(§6) Samples quantified below the LLOQ were reported as zero.
(§7) Renal clearance (CLr) was calculated as Au,0-12/AUC0-12 at steady state.
(§8) Statistical analyses were performed using SAS software (Version 9.3; SAS institute Inc., Cary, N.C., USA).

[4] = clinical; settings: human, oral; for AUC(0-t) / half-life: plasma; for CL renal: urine and plasma
Protocol: (§9) Both evaluations followed randomized, double-blind, placebo-controlled designs. Part 1 was conducted at PPD Development (Austin, Tex.) and Part 2 was conducted at two sites: Aspen Clinical Research (Orem, Utah) and Altoona Center for Clinical Research (Duncansville, Pa.). Study protocol and informed consents were approved by RCRC IRB (Austin, Tex.) and Quorum Review IRB (Seattle, Wash.).
as §3, §6, §7, §8

[5] = Study 2-Part 1: multiple-dose escalation PK in healthy subjects
Protocol: as §9, §3, §6, §7, §8

[6] = Pharmacokinetic interaction of Compound 1 and methotrexate (dose-normalized AUC); format: in vivo, human; settings: FIG. 35A
[7] = clinical; settings: human, plasma, oral, 48 mg
Protocol: as §5, §6, §7, §8

[8] = system: healthy subjects; assay: Study 1: safety and tolerability, single doses, healthy subjects
Protocol: as §5
Safety was evaluated based on assessments of adverse events, vital signs, physical examination, laboratory metrics, and 12-lead electrocardiogram (ECG). All subjects who received at least one dose of study drug were included in the safety analyses. Subjects who were administered placebo were pooled into a single group within each study or study part. Laboratory test values and vital signs measurements that were above or below the reference range were identified. Subjects were followed-up for a total of 7 days in Study 1, 35 days in Study 2-Part 1, and 57 days in Study 2-Part 2.

[9] = clinical; settings: human, oral; for half-life: plasma; for CL renal: urine and plasma, CLr
Protocol: Both evaluations followed randomized, double-blind, placebo-controlled designs. Part 1 was conducted at PPD Development (Austin, Tex.) and Part 2 was conducted at two sites: Aspen Clinical Research (Orem, Utah) and Altoona Center for Clinical Research (Duncansville, Pa.).
as §4, §6, §7

[10] = Solubility of solid state forms; format: physicochemical; settings: Amorphous Freebase: relative to the corresponding crystalline forms
[11] = Stability of solid state forms to light and peroxide; format: physicochemical
Protocol: (§1) The Amorphous Freebase, however, is hygroscopic and can comprise as much as 12% by weight water at 25° C./90% relative humidity. Environmental controls potentially are required to ensure appropriate control of potency and water content during storage, dispensing, and handling of the Amorphous Freebase.
(§2) The Tartrate Hydrate, however, potentially will convert to an amorphous tartrate below 10% relative humidity, when heated, or when compressed or under shear.

[12] = Solid state accelerated stability study; format: physicochemical; settings: for Growth of degradation products: open and closed glass vials
Protocol: Samples (approximately 1 mg to 2 mg) of the solid state form were weighed into glass vials and tested as described below.

[13] = Equilibrium solubility; format: physicochemical
Protocol: After equilibration, the mixtures were inspected to assure that the amount of excess solid was sufficient to permit re-characterization. […] The pH of aqueous suspensions was determined after equilibration. The solid phase was separated from the liquid phase by centrifugation at 3300 rpm at equilibration temperatures (i.e., 25° C. or 37° C.). The supernatant was then filtered (13 mm Acrodisc® syringe filter with 0.45μ GHP membrane, Pall® Life Sciences, Ann Arbor, Mich.) to discard the initial 2 mL (to saturate filter) and capture the last 1 mL for analysis. The filtrate was diluted as needed for quantification of the material studied by HPLC method (as detailed elsewhere herein). The physical form of the recovered solid was characterized by powder X-ray diffraction to examine whether or not phase change had occurred

[14] = Moisture sorption isotherm; format: physicochemical; settings: 90% relative humidity at 25° C.
Protocol: Moisture vapor isotherm data were collected with a DVS Advantage (Surface Measurement Systems Ltd, Alperton, United Kingdom). The sample powder (5 mg to 20 mg) was loaded on a tared pan of the DVS Advantage. The moisture sorption isotherm data were collected from 30-0-90-0-30% relative humidity in 10% relative humidity intervals. For each step, the dm/dt criteria was 0.001% over 5 minutes, a minimum dm/dt time of 30 minutes, and a maximum dm/dt of 120 minutes. Data was collected isothermally at 25° C. with a nitrogen flow rate of 200 cm^3/minute. The post DVS sample was kept at approximately 30% relative humidity before PXRD analysis.

[15] = Bioavailability of solid state forms; format: in vivo; settings: relative to the corresponding crystalline forms
[16] = Hygroscopicity / moisture sorption isotherm of solid state forms; format: physicochemical
Excerpt: FIG. 6A is a moisture sorption isotherm corresponding to the Amorphous Freebase (via dehydration).
FIG. 6C is a moisture sorption isotherm corresponding to the Tartrate Hydrate.
FIG. 6D is a moisture sorption isotherm corresponding to the Freebase Anhydrate Form D.
In one embodiment, the Tartrate Hydrate has a moisture sorption isotherm profile showing a weight gain of about 1% to about 2% when relative humidity is increased from about 10% relative humidity to about 90% relative humidity at a temperature of 25° C.

[17] = Chemical stability of solid state forms in closed vials at controlled temperature and relative humidity; format: physicochemical
Protocol: as §1, §2

[18] = multiple twice-daily doses 3 mg
[19] = multiple twice-daily doses 6 mg
[20] = multiple twice-daily doses 12 mg
[21] = multiple twice-daily doses 24 mg
[22] = multiple twice-daily doses, Total Compound 1
[23] = single 48 mg dose, healthy subjects
[24] = on average across all dose groups
[25] = 6 mg BID, Day 14, healthy subjects
[26] = 12 mg BID, Day 14, healthy subjects
[27] = 24 mg BID, Day 14, healthy subjects
[28] = general statement on the solid state form

For CC[C@@H]1CN(C(=O)NCC(F)(F)F)C[C@@H]1c1cnc2cnc3[nH]ccc3n12 [Compound 1, (3S,4R)-3-ethyl-4-(3H-imidazo[1,2-a]pyrrolo[2,3-e]pyrazin-8-yl)-N-(2,2,2-trifluoroethyl)pyrrolidine-1-carboxamide], the “Abdominal Discomfort, subjects” value [1, 18] was 0, the “Abdominal Pain, subjects” value [1, 18] was 0 and the “Diarrhoea, subjects” value [1, 18] was 0. The “Headache, subjects” value [1, 18] was 0, the “Nasopharyngitis, subjects” value [1, 18] was 1 (12.5%) and the “Abdominal Discomfort, subjects” value [1, 19] was 0. The “Abdominal Pain, subjects” value [1, 19] was 1 (12.5%), the “Diarrhoea, subjects” value [1, 19] was 1 (12.5%) and the “Headache, subjects” value [1, 19] was 2 (25.0%). For the same compound, the “Nasopharyngitis, subjects” value [1, 19] was 1 (12.5%), the “Abdominal Discomfort, subjects” value [1, 20] was 0 and the “Abdominal Pain, subjects” value [1, 20] was 0. For the same compound, the “Diarrhoea, subjects” value [1, 20] was 1 (12.5%), the “Headache, subjects” value [1, 20] was 2 (25.0%) and the “Nasopharyngitis, subjects” value [1, 20] was 0. The “Abdominal Discomfort, subjects” value [1, 21] was 0, the “Abdominal Pain, subjects” value [1, 21] was 1 (12.5%) and the “Diarrhoea, subjects” value [1, 21] was 0. For the same compound, the “Headache, subjects” value [1, 21] was 1 (12.5%), the “Nasopharyngitis, subjects” value [1, 21] was 0 and the “Abdominal Discomfort, subjects” value [1, 22] was 0. For the same compound, the “Abdominal Pain, subjects” value [1, 22] was 2 (6.3%), the “Diarrhoea, subjects” value [1, 22] was 2 (6.3%) and the “Headache, subjects” value [1, 22] was 5 (15.6%). The “Nasopharyngitis, subjects” value [1, 22] was 2 (6.3%), the “changes in hematologic parameters” value ([1]; multiple-dose administration in healthy subjects for 14 days) was “no clinically significant changes” and the “subjects with at least one TEAE” value ([2]; Compound 1 dose groups (total of 11 subjects with RA)) was “Five subjects”. For the same compound, the “number of TEAEs reported” value ([2]; Compound 1 dose groups, subjects with RA) was 7, the CL/F [3, 23] was 47.6 ± 8.97 L/h and the “dose-normalized AUC∞ lower than that following 3 mg dose” value [3, 23] was 40%. For the same compound, the “Dose proportionality of exposures” value ([3]; single dose range of 3 to 36 mg and multiple dose range of 3 mg to 24 mg BID) was “dose proportional”, the Ctrough (6 mg BID, Day 28, subjects with RA) was 5.81 ng/mL and the AUC0-12 (12 mg BID, Day 28, subjects with RA) was 334 ng·h/mL. The Ctrough (12 mg BID, Day 29, subjects with RA) was 6.44 ng/mL, the Ctrough (24 mg BID, Day 28, subjects with RA) was 15.3 ng/mL and the Ctrough (24 mg BID, Day 29, subjects with RA) was 14.9 ng/mL. The “apparent oral clearance lower in subjects with RA compared to healthy subjects” value [24] was 23%, the “higher exposure in subjects with RA than in healthy subjects” value [24] was “approximately 30%” and the AUC(0-t) ([4]; 3 mg) was 78.3 ± 20.3 ng·h/mL. For the same compound, the half-life ([4]; 3 mg) was 192 ± 24 min, the AUC(0-t) ([4]; 6 mg) was 138 ± 16.7 ng·h/mL and the half-life ([4]; 6 mg) was 198 ± 18 min. For the same compound, the half-life ([4]; 12 mg) was 192 ± 30 min, the CL renal ([4]; 3 mg) was 125 mL/min and the CL renal ([4]; 12 mg) was 162 mL/min. It also gave a Ctrough ([5]; 3 mg BID, Day 14, healthy subjects) of 1.46 ± 0.50 ng/mL, a CL/F [5, 25] of 43.9 ± 5.4 L/h and a Ctrough [5, 25] of 2.29 ± 0.41 ng/mL. The CL/F [5, 26] was 45.5 ± 8.04 L/h, the Ctrough [5, 26] was 4.54 ± 1.55 ng/mL and the CL/F [5, 27] was 46.1 ± 6.44 L/h. The Ctrough [5, 27] was 9.50 ± 2.57 ng/mL, the “t1/2F (functional half-life)” value ([5]; 24 mg BID, Day 14, healthy subjects, harmonic mean ± pseudo-SD) was 3.3 ± 0.4 h and the functional half-life ([5]; estimated from Cmax to Ctrough ratio at steady-state, healthy volunteers) was “approximately 3 hours”. The “pre-dose concentrations on Study Day 13 lower compared with Study Day 5” value ([5]; multiple dosing, healthy volunteers) was 13%, the “effect of concomitant methotrexate administration on Compound 1 dose-normalized AUC” value [6] was “lack of effect” and the AUC(0-inf) [7] was 1040 ± 174 ng·h/mL. The AUC(0-t) [7] was 1030 ± 174 ng·h/mL, the “Headache, subjects” value ([8]; single dose 48 ng) was 2 (33.3%) and the “Presyncope, subjects” value ([8]; single dose 48 ng) was 0. The “Headache, subjects” value ([8]; single dose 1 mg) was 0, the “Presyncope, subjects” value ([8]; single dose 1 mg) was 0 and the “Headache, subjects” value ([8]; single dose 3 mg) was 0. For the same compound, the “Presyncope, subjects” value ([8]; single dose 3 mg) was 0, the “Headache, subjects” value ([8]; single dose 6 mg) was 0 and the “Presyncope, subjects” value ([8]; single dose 6 mg) was 1 (16.7%). The “Headache, subjects” value ([8]; single dose 12 mg) was 0, the “Presyncope, subjects” value ([8]; single dose 12 mg) was 0 and the “Headache, subjects” value ([8]; single dose 24 mg) was 0. The “Presyncope, subjects” value ([8]; single dose 24 mg) was 1 (16.7%), the “Headache, subjects” value ([8]; single dose 36 mg) was 0 and the “Presyncope, subjects” value ([8]; single dose 36 mg) was 0. For the same compound, the Tolerability ([8]; single doses up to 48 mg and multiple twice daily doses up to 24 mg, immediate-release formulation) was “well-tolerated”, the “dose-limiting toxicities or safety concerns” value ([8]; single doses up to 48 mg or multiple doses up to 24 mg twice daily) was “no dose-limiting toxicities or safety concerns” and the “Presyncope, subjects” value ([8]; single doses, Total Compound 1) was 2 (4.8%). The “Severity of TEAEs” value ([8]; single doses, healthy subjects) was “mild”, the maximum tolerated dose ([8]; single or multiple dose studies) was “not reached” and the half-life ([9]; 6 mg, t1/2F (functional half-life), 6 mg BID, Day 29, subjects with RA, harmonic mean) was 210 min. For the same compound, the half-life ([9]; 12 mg, t1/2F (functional half-life), 12 mg BID, Day 29, subjects with RA, harmonic mean) was 222 min, the half-life ([9]; 24 mg, t1/2F (functional half-life), 24 mg BID, Day 29, subjects with RA, harmonic mean) was 216 min and the half-life ([9]; functional half-life, subjects with RA on stable doses of methotrexate) was roughly 240 min. It also gave a CL renal ([9]; 6 mg, 6 mg BID, Day 28, subjects with RA) of 116 mL/min, a CL renal ([9]; 6 mg, 6 mg BID, Day 29, subjects with RA) of 82.2 mL/min and a CL renal ([9]; 12 mg, 12 mg BID, Day 28, subjects with RA) of 104 mL/min. The CL renal ([9]; 12 mg, 12 mg BID, Day 29, subjects with RA) was 82.7 mL/min and the CL renal ([9]; 24 mg, 24 mg BID, Day 28, subjects with RA) was 105 mL/min.
For CC[C@@H]1CN(C(=O)NCC(F)(F)F)C[C@@H]1c1cnc2cnc3[nH]ccc3n12 [Amorphous Freebase, (3S,4R)-3-ethyl-4-(3H-imidazo[1,2-a]pyrrolo[2,3-e]pyrazin-8-yl)-N-(2,2,2-trifluoroethyl)pyrrolidine-1-carboxamide], the Solubility [10] was “greater solubility”, the “stability to light and peroxide” value [11] was “acceptable stability” and the “Growth of degradation products” value ([12]; 40° C./75% relative humidity, up to 24 weeks) was “no growth of degradation products”. The “Growth of degradation products” value ([12]; 50° C./75% relative humidity, up to six weeks) was “no growth of degradation products”, the chemical stability ([12]; solid state accelerated stability study) was “acceptable” and the “Change in attributes evaluated (description, crystal form, assay, impurities and water content)” value ([12]; storage conditions of the accelerated stability study) was “No material change”. For the same compound, the Solubility ([13]; FasSIF (pH 6.5 at 37° C.)) was 1.14 mg/mL (≈ 3 mM), the Solubility ([13]; FedSIF (pH 5.0 at 37° C.)) was 2.13 mg/mL (≈ 5.6 mM) and the Solubility ([13]; pH 1 at 25° C.) was greater than 3.5 mg/mL. For the same compound, the Solubility ([13]; pH 7.4 at 25° C.) was 0.68 mg/mL (≈ 1.79 mM), the “Moisture sorption (reversibly sorbs up to)” value [14] was “up to 13%” and the bioavailability [15] was “increased bioavailability”. For the same compound, the “water content (hygroscopicity)” value ([16]; 25° C./90% relative humidity) was no more than 12 % by weight, the hygroscopicity [16, 28] was “hygroscopic” and the “degradation observed in closed vials” value ([17]; closed vials, 30° C./65% relative humidity and 40° C./75% relative humidity over 12 weeks, 50° C./75% relative humidity over 6 weeks) was “no degradation”. The chemical stability [17, 28] was “acceptable chemical stability”.
